Read-outs that look alike come from different tables or passages of the source.
How the values were obtained:
δ opioid receptor = molecular target: T1, δ opioid receptor (Homo sapiens, UniProt P41143); test: Competition binding assay on membranes of CHO cells expressing δ opioid receptor, [3H]-labeled ligand; details: for Ki: Table 5-1, read-out: δOR Ki
T1 construct: expressed in transfected cells; host or cells: CHO cells (membranes)
Description: (§1) CHO cells expressing p opioid receptor, δ opioid receptor and κ opioid receptor were cultured in 10 cm^2 culture dishes (F-12 medium+10% neonatal bovine serum) for several days, and the culture fluid was aspirated after the cells had grown to the bottom of the dishes; 3 ml of PBS/EDTA solution (0.1M NaCl, 0.01M NaH2PO4, 0.04% EDTA) was added to digest the cells for 3-5 min. Add ice-cold homogenate (50 mM HEPES PH 7.4, 3 mM MgCl, 1 mM EGTA) to the centrifuge tube, transfer the solution and sediment to a homogenizer and homogenize; then transfer the homogenate to a centrifuge tube and centrifuge at 18000 rpm. Centrifuge for 15 min, two times; the obtained precipitate was homogenized with appropriate amount of 50 mM Tris-HCl, pH 7.4 buffer and divided into centrifuge tubes and stored at −70° C. in the refrigerator until use.
(§2) The total binding tube was spiked with 20-30 μg of the expressed membrane receptor protein and […] ligand (1-2 nM), the corresponding non-specific binding tube was spiked with 1 μM of the corresponding ligand, and the sample tubes were spiked with various screened opioid ligands in a final volume of […], incubated at 30° C. for 30 min, and the reaction was terminated in ice water. […] The samples were filtered under negative pressure through GF/C (whatman) glass fiber filter paper on a Millipore sample collector. The reaction was rinsed three times with 4 ml of 50 mMV Tris-HCl (pH 7.4), the filter paper was dried and placed in 0.5 ml Eppendorf tubes with 0.5 ml of lipophilic scintillation solution, the radioactivity was measured by PERKIN ELMER PRI-CARB 2910 liquid scintillation counter and the inhibition rate was calculated. Inhibition rate (or binding rate)=(total binding rate dpm−sample tube dpm)/(total binding tube dpm−non-specific binding tube dpm)×100%
(§3) IC50 was calculated using Prism 5.0 software. the Ki value was calculated as follows, Ki=IC50/(1+[IL]/Kd), [lL] is the concentration of the added labeled ligand and Kd is the equilibrium dissociation parameter of the labeled ligand.
(§4) CHO cells expressing p opioid receptor, δ opioid receptor and κ opioid receptor were cultured in a 10 cm^2 culture dish (F-12 medium+10% neonatal bovine serum) for several days, and the culture fluid was aspirated after the cells grew to the bottom of the dish. 3 mL PBS/EDTA solution (0.1 M NaCl, 0.01 M NaH2PO4, 0.04% EDTA) was added to digest the cells for 3˜5 min, blew with a pipette to completely dislodge the cells. The cells were collected in a 40 mL centrifuge tube, centrifuged at 5000 rpm for 5 min. The supernatant was removed and the ice-cold homogenate (50 mM HEPES pH 7.4, 3 mM MgCl2, 1 mM EGTA) was added to the centrifuge tube. The solution and the precipitate were transferred to a homogenizer. Then the homogenate was transferred to a centrifuge tube and centrifuged at 18000 rpm for 15 min. The precipitate was centrifuged twice at 18000 rpm for 15 min. The obtained precipitate was homogenized by adding appropriate amount of 50 mM Tris-HCl, pH 7.4 buffer and divided into centrifuge tubes and stored at −70° C. in the refrigerator until use.
(§5) The total binding tube was added with 20-30 μg of expressed membrane receptor protein and [3H]-labeled ligand (1-2 nM). The corresponding non-specific binding tube was added with 1 μM of the corresponding ligand, and the sample tubes were added with various screened opioid ligands in a final volume of 100 μL. All of them were incubated for 30 min at 30° C., and the reaction was terminated in ice water. The samples were filtered under negative pressure through GF/C (Whatman) glass fiber filter paper on a Millipore sample collector. The reaction was rinsed three times with 4 mL of 50 mM Tris-HCl (pH 7.4), the filter paper was dried and placed in 0.5 mL Eppendorf tubes with 0.5 mL of lipophilic scintillation solution. […]

κ opioid receptor = molecular target: T2, κ opioid receptor (Homo sapiens, UniProt P41145); test: Competition binding assay on membranes of CHO cells expressing κ opioid receptor, [3H]-labeled ligand
T2 construct: expressed in transfected cells; host or cells: CHO cells (membranes)
Description: as §1, §2, §3, §4, §5

μ opioid receptor = molecular target: T3, μ opioid receptor (Homo sapiens, UniProt P35372); test: Competition binding assay on membranes of CHO cells expressing μ opioid receptor, [3H]-labeled ligand; details: read-out: μOR Ki
T3 construct: expressed in transfected cells; host or cells: CHO cells (membranes)
Description: as §1, §2, §3, §4, §5

Female mice = test: In vivo hot plate method analgesia test; details: intraperitoneal; for % MPE (5 mg/kg): Table 2-2, hot plate 55° C.; for ED50: Mus musculus, ip, Table 4-2, hot plate; for Maximum percentage effective analgesia (% MPE): Table 5-2, hot plate 55° C.; for Maximum percentage effective analgesia (% MPE) / % MPE: 10 mg/kg dose; for Maximum percentage effective analgesic (% MPE): Table 1-2, hot plate 55° C.; for % MPE (5 mg/kg) / Maximum percentage effective analgesic (% MPE): 5 mg/kg dose; for % MPE: Table 4-2, hot plate 55° C.
Description: Female mice weighing about 20 g were placed on a hot plate apparatus preheated to 55° C., and the latency of the hindfoot response of the mice was used as the pain threshold indicator. Animals were screened before the experiment, and those with response latency less than 5 s or more than 30 s were excluded. To prevent foot scalding, the maximum observation time was set at 60 s. The basal pain threshold was the average of two measurements, with a 5-min interval between measurements. pain thresholds were measured at 15 m, 30 m, 60 m and 120 m after intraperitoneal injection in each group of mice. The percentage effective analgesia (% MPE) was calculated according to the following formula: percentage effective analgesia (% MPE) (post-dose latency−pre-dose latency)/(60−pre-dose latency)×100%. ED50 values were calculated based on the effective percentage of analgesia using the software Graphpad prism 5.0 software.
(§6) Female mice weighing about 20 g were placed on a hot plate apparatus preheated to 55° C., and the latency of the hindfoot response of the mice was used as the pain threshold indicator. Animals were selected before the experiment, and those with response latency less than 5 s or greater than 30 s were excluded. To prevent foot scalding, the maximum observation time was set at 60 s. The basal pain threshold was the average of two measurements, with a 5-min interval between measurements. pain thresholds were measured at 15 min, 30 min, 60 min and 120 min after intraperitoneal administration in each group of mice. The percentage of analgesic effectiveness (% MPE) was calculated according to the following equation. Percentage of effective analgesia (% MPE)_(Pre-dose incubation period−Incubation period after drug administration)/(60-Pre-dose incubation period)×100%. ED50 values were calculated based on the effective percentage of analgesia using GraphPad prism 5.0 software.
as §6, with “were screened” for “were selected”, “measurements. Pain” for “measurements. pain”, “following formula.” for “following equation. Percentage of effective analgesia (% MPE)_(Pre-dose incubation period−Incubation period after drug administration)/(60-Pre-dose incubation period)×100%. ED50 values were calculated based on the effective percentage of analgesia using GraphPad prism 5.0 software.”
ED50 values were calculated based on the effective percentage of analgesia using Graphpad Prism 5.0.
Female mice weighing about 20 g were placed on a hot plate apparatus preheated to 55° C., and the latency of the hindfoot response of the mice was used as the pain threshold indicator. Animals were screened before the experiment, and those with response latency less than 5 s or more than 30 s were excluded. To prevent foot scalding, the maximum observation time was set at 60 s. The basal pain threshold was the average of two measurements, with a 5-min interval between measurements. pain thresholds were measured at 15 min, 30 min, 60 min and 120 min after intraperitoneal administration in each group of mice. The analgesic effective percentage (% MPE) was calculated according to the following formula: analgesic effective percentage (% MPE)=(latency after drug administration−latency before drug administration)/(60−latency before drug administration)×100%. ED50 values were calculated based on the effective percentage of analgesia using the software Graphpad prism 5.0.
Female mice weighing about 20 g were placed on a hot plate apparatus preheated to 55° C. and the latency of the hindfoot response was used as an indicator of pain threshold. […]

## COc1cccc([C@]2(O)CCN(C(=O)Cc3cc(F)c(F)cc3F)C[C@H]2CN(C)C)c1
δ opioid receptor; 0.5 h, Table 4-1, 1 μM concentration of compound, read-out: δOR Binding rate (%)
  inhibition at 1 µM: 26.6 ± 3.9%
κ opioid receptor; 0.5 h, Table 4-1, 1 μM concentration of compound, read-out: κOR Binding rate (%)
  inhibition at 1 µM: 33 ± 4.1%
μ opioid receptor; Table 4-1
  Ki: 165 ± 22.3 nM

## CN(C)CC1CN(S(=O)(=O)Cc2ccccc2)CCC1(O)c1cccc(OC(F)(F)F)c1.Cl (stereo not drawn)
Female mice
  % MPE (5 mg/kg): 20.2%

## COc1cccc([C@]2(O)CCN(C(=O)Cc3cc(F)c(F)cc3F)CC2CN(C)C)c1.Cl (stereo partly drawn)
Female mice
  ED50: 0.54 mg/kg

## COc1cccc(C2(O)CCN(C(=O)CCc3cccc(C(F)(F)F)c3)CC2CN(C)C)c1.Cl (stereo not drawn) [FWBE10, 1-(3-((Dimethylamino)methyl)-4-hydroxy-4-(3-methoxyphenyl)piperidin-1-yl)-3-(3-(trifluoromethyl)phenyl)propyl-1-one hydrochloride]
δ opioid receptor
  Ki: > 10000 nM
Female mice
  Maximum percentage effective analgesia (% MPE): 17.33%
μ opioid receptor; Table 5-1
  Ki: 219 ± 9.8 nM

## COc1cccc(C2(O)CCN(C(=O)Cc3cccc(Br)c3)CC2CN(C)C)c1.Cl (stereo not drawn) [FWBE11, 2-(3-Bromophenyl)-1-(3-((dimethylamino)methyl)-4-hydroxy-4-(3-methoxyphenyl)piperidin-1-yl)ethyl-1-one hydrochloride]
δ opioid receptor
  Ki: > 10000 nM
Female mice
  Maximum percentage effective analgesia (% MPE): 98.31%
μ opioid receptor; Table 5-1
  Ki: 57.6 ± 0.1 nM

## COc1cccc(C2(OC(=O)c3ccccc3)CCC(NS(=O)(=O)c3cccc(Cl)c3)CC2CN(C)C)c1.Cl (stereo not drawn) [4-((3-Chlorophenyl)sulfonylamino)-2-((dimethylamino)methyl)-1-(3-methoxyphenyl)cyclohexyl benzoate hydrochloride]
Female mice
  Maximum percentage effective analgesic (% MPE): 11.6%

## COc1cccc(C2(O)CCC(NS(=O)(=O)c3cccc(Cl)c3)CC2CN(C)C)c1.Cl (stereo not drawn) [3-Chloro-N-(3-((dimethylamino)methyl)-4-hydroxy-4-(3-methoxyphenyl)cyclohexyl)benzenesulfonamide hydrochloride]
Female mice
  Maximum percentage effective analgesic (% MPE): 11.7%

## COc1cccc(C2(O)CCC(NS(=O)(=O)c3ccccc3)CC2CN(C)C)c1.Cl (stereo not drawn) [N-(3-((Dimethylamino)methyl)-4-hydroxy-4-(3-methoxyphenyl)cyclohexyl)benzenesulfonamide hydrochloride]
Female mice
  Maximum percentage effective analgesic (% MPE): 10.3%

## COc1cccc(C2(O)CCC(N(Cc3ccccc3)S(=O)(=O)c3ccccc3)CC2CN(C)C)c1.Cl (stereo not drawn) [N-Benzyl-N-(3-((dimethylamino)methyl)-4-hydroxy-4-(3-methoxyphenyl)cyclohexyl)benzenesulfonamide hydrochloride]
Female mice
  Maximum percentage effective analgesic (% MPE): 0%

## COc1cccc(C2(O)CCN(C(=O)Cc3c[nH]c4ccccc34)CC2CN(C)C)c1 (stereo not drawn) [FWBE13, 1-(3-((Dimethylamino)methyl)-4-hydroxy-4-(3-methoxyphenyl)piperidin-1-yl)-2-(1H-indol-3-yl)ethyl-1-one]
κ opioid receptor; Table 5-1, read-out: κOR Ki
  Ki: 3100 ± 79.5 nM
Female mice
  Maximum percentage effective analgesia (% MPE): 66.95%
μ opioid receptor; Table 5-1
  Ki: 115 ± 4.1 nM

## CN(C)C[C@@H]1CN(C(=O)Cc2cc(F)c(F)cc2F)CC[C@@]1(O)c1cccc(O)c1.Cl
Female mice
  % MPE: 29.7%

## COc1cccc(C2(O)CCC(S(=O)(=O)Cc3ccccc3)CC2CN(C)C)c1.Cl (stereo not drawn) [4-(Benzylsulfonyl)-2-((dimethylamino)methyl)-1-(3-methoxyphenyl)cyclohexane-1-ol hydrochloride]
Female mice
  Maximum percentage effective analgesic (% MPE): 21.7%

## COc1cccc([C@@]2(O)CCN(C(=O)Cc3cc(F)c(F)cc3F)C[C@@H]2CN(C)C)c1.Cl
Female mice
  % MPE: 10.5%

## COc1cccc(C2(OC(=O)c3ccccc3)CCC(N(C)S(=O)(=O)Cc3ccccc3)CC2CN(C)C)c1.Cl (stereo not drawn)
Female mice
  Maximum percentage effective analgesic (% MPE): 37.2%

## COc1cccc(C2(O)CCC(N(Cc3ccccc3)S(=O)(=O)c3cccc(Cl)c3)CC2CN(C)C)c1.Cl (stereo not drawn) [N-Benzyl-3-chloro-N-(3-((dimethylamino)methyl)-4-hydroxy-4-(3-methoxyphenyl)cyclohexyl)benzenesulfonamide hydrochloride]
Female mice
  Maximum percentage effective analgesic (% MPE): 6%

## COc1cccc(C2(OC(=O)c3ccccc3)CCC(N(C)S(=O)(=O)Cc3cccc(Cl)c3)CC2CN(C)C)c1.Cl (stereo not drawn)
Female mice
  Maximum percentage effective analgesic (% MPE): 0%

## COc1cccc([C@]2(O)CCN(S(=O)(=O)Cc3ccccc3)C[C@H]2CN(C)C)c1.Cl [(3R,4S)-1-(Benzylsulfonyl)-3-((dimethylamino)methyl)-4-(3-methoxyphenyl)piperidin-4-ol hydrochloride]
Female mice
  ED50: 0.49 mg/kg

## COc1cccc(C2(OC(F)F)CCN(S(=O)(=O)Cc3ccccc3)CC2CN(C)C)c1.Cl (stereo not drawn)
Female mice
  % MPE (5 mg/kg): 8.38%

## COc1cccc(C2(O)CCC(NS(=O)(=O)Cc3cccc(Cl)c3)CC2CN(C)C)c1.Cl (stereo not drawn) [1-(3-Chlorophenyl)-N-(3-((dimethylamino)methyl)-4-hydroxy-4-(3-methoxyphenyl)cyclohexyl)methanesulfonamide hydrochloride]
Female mice
  Maximum percentage effective analgesic (% MPE): 15.2%

— patent US12624004B2 (Fudan University, priority 2019, dated 2026)
